Test results reported in PubChem BioAssay (NCI).
Several values for one entry are separate records, joined by “and”; a condition that tells them apart may be missing. Identical values can stand only once.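 Protocol summary: plate cells (96-well), add compound at 5 concentrations, incubate 48 h, interpolate endpoints linearly. Abbreviation: GI50, concentration required for 50% inhibition of growth. TGI: concentration producing complete growth inhibition.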

Columns and labels:
Experiment in all cases: NCI tumour cell line growth inhibition, 48 h
SF-295 CNS = test system: SF-295 CNS
UACC-62 melanoma = test system: UACC-62 melanoma
KM20L2 colon = test system: KM20L2 colon
U251 CNS = test system: U251 CNS
DMS 114 small cell lung = test system: DMS 114 small cell lung
LOX IMVI melanoma = test system: LOX IMVI melanoma
CCRF-CEM leukemia = test system: CCRF-CEM leukemia
HCC-2998 colon = test system: HCC-2998 colon
M19-MEL melanoma = test system: M19-MEL melanoma
HS 578T breast = test system: HS 578T breast

SMILES	TGI (SF-295 CNS)	TGI (UACC-62 melanoma)	TGI (KM20L2 colon)	TGI (U251 CNS)	TGI (DMS 114 small cell lung)	TGI (LOX IMVI melanoma)	TGI (CCRF-CEM leukemia)	TGI (HCC-2998 colon)	TGI (M19-MEL melanoma)	TGI (HS 578T breast)	GI50 (SF-295 CNS)	GI50 (CCRF-CEM leukemia)	GI50 (UACC-62 melanoma)	GI50 (U251 CNS)	GI50 (HS 578T breast)	GI50 (LOX IMVI melanoma)	GI50 (HCC-2998 colon)	GI50 (KM20L2 colon)	GI50 (DMS 114 small cell lung)	GI50 (M19-MEL melanoma)
O=C(O)[C@H](NS(=O)(=O)c1ccc([N+](=O)[O-])cc1)c1ccccc1	> 100 µM	> 100 µM	> 100 µM	> 100 µM	> 100 µM	> 100 µM	> 100 µM	> 100 µM	> 100 µM											
COc1cc(/C=C(\C#N)c2ccccc2)cc(OC)c1	73.7 µM	> 100 µM	> 100 µM	> 100 µM	> 100 µM	65.4 µM	> 100 µM	> 100 µM	> 100 µM											
O=C1CSC(/C(=N/Nc2ccccc2)c2nc3ccccc3[nH]2)=N1	58.5 µM	> 100 µM	> 100 µM	> 100 µM	> 100 µM	> 100 µM	53.6 µM	> 100 µM	> 100 µM											
C/C(N=NC(=S)N(C)C)=C1\C=CC=CN1O	> 100 µM	> 93 µM	> 100 µM	> 100 µM		> 100 µM	> 63.5 µM	> 44.9 µM	> 100 µM	> 100 µM										
O=C(NCO)NCOCn1c(=O)n(CO)c(=O)n(CO)c1=O	> 100 µM	36.8 µM	> 94.9 µM	> 100 µM	99.3 µM	37.3 µM	23.6 µM	> 100 µM	> 66.3 µM											
C=C1C(=O)OC2/C=C(\COC(C)=O)CCC(OC(C)=O)C3=CC(OC3=O)C12 (stereo not given)	32.6 µM	17.6 µM	14.3 µM	33.9 µM	3.18 µM	19 µM	4.63 µM	29.2 µM		52.8 µM										
O=C1OC2CCCC[C@@H]2C2C[C@]34CCCCC3[C@@H](C(=O)O4)C12 (stereo not given in full)	> 100 µM	> 100 µM	> 100 µM	> 100 µM	> 100 µM	> 100 µM	> 100 µM	> 100 µM	> 100 µM											
O=C1CCCC[C@H]1[C@H]1CCC[C@@H]([C@H]2CCCCC2=O)C1=O	> 100 µM	> 100 µM	> 100 µM	> 100 µM		> 100 µM	> 100 µM	> 100 µM	> 100 µM											
N#CC1CC2(C1)OCCS2 (stereo not given)	> 100 µM	> 100 µM	> 100 µM	> 100 µM		> 100 µM	> 100 µM	> 100 µM												
Nc1ccc2cc3ccc(N)cc3nc2c1	7.12 µM [middle of 4 runs]	3.73 µM [middle of 4 runs]	6.61 µM	11.4 µM and 10.4 µM and 9.94 µM	3.03 µM	7.71 µM and 3.58 µM and 3.09 µM		4.87 µM and 2.56 µM and 2.47 µM	4.07 µM	6.59 µM and 7.97 µM and 9.65 µM	1.47 µM	1.92 µM								
S=C1OC2CCCC[C@H]2O1 (stereo not given in full)	> 100 µM	> 100 µM	> 100 µM	> 100 µM	> 100 µM	> 100 µM	> 100 µM	> 100 µM	> 100 µM											
CCOC(=O)NC(=O)c1cn(CCCOC(=O)CCCCCCCCCCC(=O)OCCCn2cc(C(=O)NC(=O)OCC)c(=O)[nH]c2=O)c(=O)[nH]c1=O	> 100 µM	> 100 µM	> 100 µM	> 100 µM		> 100 µM	> 100 µM	> 100 µM	> 100 µM											
O=C1NC2OC(C(O)CO)C(O)C2O1 (stereo not given)	> 100 µM	> 100 µM	> 100 µM	> 100 µM	> 100 µM	> 100 µM	> 100 µM	> 100 µM	> 100 µM											
O=C1[C@@H]2C(c3ccccc3F)=NO[C@@H]2C(=O)N1c1ccc(Cc2ccc(N3C(=O)[C@H]4C(c5ccccc5F)=NO[C@H]4C3=O)cc2)cc1	> 100 µM	> 100 µM	> 100 µM	> 100 µM	> 100 µM	> 100 µM	> 70.8 µM	> 100 µM	> 100 µM											
N#Cc1cccnc1Cl	> 100 µM	> 100 µM	> 100 µM	> 100 µM	> 100 µM	> 100 µM	> 100 µM	> 100 µM	> 100 µM											
O=C1CC2CCCC23CC2(CCN13)OCCO2 (stereo not given)	> 100 µM	> 100 µM	> 100 µM	> 100 µM	> 100 µM	> 100 µM	> 100 µM	> 100 µM	> 100 µM											
NC(=O)NCc1c(C(N)=O)ncn1Cc1ccccc1	> 100 µM	> 100 µM	> 100 µM	> 100 µM	> 100 µM	> 100 µM	> 100 µM	> 100 µM	> 100 µM											
CCCSc1nc(COC(=O)NC)c(COC(=O)NC)n1C	> 100 µM	> 100 µM	> 100 µM	> 100 µM	> 100 µM	> 100 µM	86.1 µM and > 64.3 µM	> 100 µM	> 100 µM											
O=c1c2cc(Br)cc(Br)c2nc(CCCl)n1CCO	> 100 µM	> 100 µM	> 100 µM	> 100 µM	> 100 µM	> 100 µM	> 100 µM	> 100 µM	> 100 µM											
O=C(Nc1c(Cl)cc([N+](=O)[O-])cc1Cl)C(=O)C(C1OC(=O)c2ccccc21)[N+](=O)[O-] (stereo not given)	> 100 µM	> 100 µM	> 100 µM	> 100 µM	> 100 µM	> 100 µM	> 100 µM	> 100 µM	> 100 µM											

SMILES	TGI (SF-295 CNS)	TGI (UACC-62 melanoma)	TGI (KM20L2 colon)	TGI (U251 CNS)	TGI (DMS 114 small cell lung)	TGI (LOX IMVI melanoma)	TGI (CCRF-CEM leukemia)	TGI (HCC-2998 colon)	TGI (M19-MEL melanoma)	TGI (HS 578T breast)	GI50 (SF-295 CNS)	GI50 (CCRF-CEM leukemia)	GI50 (UACC-62 melanoma)	GI50 (U251 CNS)	GI50 (HS 578T breast)	GI50 (LOX IMVI melanoma)	GI50 (HCC-2998 colon)	GI50 (KM20L2 colon)	GI50 (DMS 114 small cell lung)	GI50 (M19-MEL melanoma)
COc1ccc(OC)c2c(C(=O)O)c(Cc3ccccc3)ccc12	> 100 µM	> 100 µM	> 100 µM	> 100 µM	> 100 µM	> 100 µM		> 100 µM	> 100 µM											
COc1ccc(CC2NCCc3cc(OC)c(OC)cc32)cc1Br (stereo not given)	86.7 µM	> 77.5 µM	> 100 µM	> 100 µM	52.9 µM	47.1 µM	> 85.3 µM	34.6 µM	41.5 µM	> 100 µM										
Clc1ccc2c(c1)-c1c3c(nn1-c1ccccc1)-c1ccccc1SC3O2 (stereo not given)	> 100 µM		> 100 µM	> 100 µM	> 100 µM	> 100 µM	> 100 µM	> 100 µM	> 100 µM											
CCOC(=O)c1ccc(C)c(N=NN(C)C)c1	> 100 µM	> 100 µM	> 100 µM	> 100 µM	> 100 µM	> 100 µM	> 100 µM	> 100 µM	> 100 µM											
O=C1CCC(O)=C1N=Nc1ccccc1	> 100 µM	74.1 µM		> 100 µM	> 100 µM	> 100 µM	> 100 µM	> 100 µM	> 100 µM											
O=C(c1ccccc1)C1OC12C(=O)Nc1ccccc12 (stereo not given)	81.8 µM	> 100 µM	66.8 µM		88.8 µM	> 100 µM	25.2 µM		> 100 µM											
c1ccc(C2Nc3ccccc3C3OCCCC23)cc1 (stereo not given)	37.4 µM	58.5 µM	47.7 µM	38.3 µM	62.4 µM	35.3 µM	84.8 µM	> 100 µM	> 100 µM											
CC/C=C\C[C@H]1C/C=C2/C(=O)C=C[C@@H]2C/C=C\CCCC(=O)O1	5.44 µM	2.37 µM		2.49 µM		0.865 µM	5.04 µM	3.22 µM		38.1 µM	2.17 µM	0.339 µM	0.573 µM	0.779 µM	4.34 µM	0.273 µM	1.76 µM			
CC1(C)[C@@H](OC(N)=O)[C@H]2O[C@H]2[C@]2(C=O)[C@H]3CC[C@]4(C)[C@@H](c5ccc(=O)oc5)[C@@H](Cl)C[C@]4(O)C3=CC[C@@H]12	0.0118 µM	0.0172 µM		0.00952 µM		0.00886 µM	0.0147 µM	0.0342 µM		0.0192 µM	0.00522 µM	0.00571 µM	0.00614 µM	0.00484 µM	0.00409 µM	0.00451 µM	0.00815 µM			
CSC(C1c2ccccc2N(c2ccc(C)cc2)c2[nH]c(=O)n(C)c(=O)c21)S(=O)(=O)c1ccc(C)cc1 (stereo not given)	> 100 µM	> 100 µM	> 100 µM	> 100 µM	> 100 µM	> 100 µM	> 100 µM	> 100 µM	> 100 µM											
CCN(CC)c1ccc(N=Nc2ccc(-c3nc4ccc[n+](C)c4s3)cc2)cc1	37 µM	26.6 µM	19.9 µM	27.1 µM		15.8 µM	> 100 µM		10.6 µM											
C/C(CC(=O)NCCc1ccccc1)=N\NC(=O)C[n+]1ccccc1	> 100 µM	> 100 µM	> 100 µM	> 100 µM	> 100 µM	> 100 µM		> 100 µM	> 100 µM											
CCn1c(SCc2ccc(C)cc2)nnc1-c1nn(-c2ccc(Cl)cc2Cl)c(-c2ccc(Cl)cc2)c1C	11.7 µM	10.6 µM		11.8 µM		10.7 µM	13.5 µM	13.2 µM		18.4 µM	2.4 µM	2.51 µM	2.02 µM	0.925 µM	3.3 µM	2.72 µM	2.35 µM			
CN(C)c1cc[c]([Sn]([c]2ccc(N(C)C)cc2)([c]2ccc(N(C)C)cc2)[c]2ccc(N(C)C)cc2)cc1	25.7 µM	17.4 µM	14.8 µM	21.2 µM	13.8 µM		5.72 µM	18.9 µM	24.4 µM		10.9 µM	1.26 µM	3.68 µM	8.02 µM		2.89 µM	4.32 µM	4.3 µM	3.15 µM	5.17 µM
C1C[OH+]CC[OH+]CC[OH+]CC[OH+]CC[OH+]1.[Cl-].[V]	> 100 µM	> 100 µM	> 100 µM	> 100 µM	> 100 µM	> 100 µM	> 100 µM	> 100 µM			28.5 µM	> 100 µM	31.5 µM	50.4 µM		30.6 µM	> 100 µM	> 100 µM	> 100 µM	
O=C(CCC1OCCO1)Nc1cc(NCc2ccccc2)ccc1OCc1ccccc1	> 100 µM	> 100 µM		> 100 µM		> 100 µM	45.7 µM	> 100 µM		> 100 µM										
C=CCc1ccc(Oc2cc(CC=C)c3c(c2O)O[C@@H](CO)[C@H]3c2ccc(O)c(-c3cc(CC=C)ccc3O)c2)cc1	> 100 µM	85 µM	93.5 µM	51.8 µM	54.6 µM	30.9 µM	46.6 µM	> 100 µM	> 100 µM											
COc1ccc(CCN2COc3c([C@@H](C)CCC=C(C)C)ccc(C)c3C2)cc1OC	6.56 µM	14.6 µM		4.47 µM		3.75 µM	21.1 µM	2.96 µM		17.3 µM	2.02 µM	3.49 µM	3.48 µM	1.91 µM	3.94 µM	1.77 µM	1.59 µM			
CN(C)C(=O)[C@H](O)[C@H](Cc1ccccc1)NC(=O)c1cc2cc(Cl)ccc2[nH]1	39 µM	32.7 µM		42.5 µM		38.5 µM	> 100 µM	38.1 µM		> 100 µM	17.3 µM	30.2 µM	13.5 µM	17.9 µM	27.5 µM	17 µM	16.3 µM			
